Measured values: article PMC9103715, “New Panx-1 Blockers: Synthesis, Biological Evaluation and Molecular Dynamic Studies” (International Journal of Molecular Sciences, 2022)
Entries after “also recorded” stand apart in the source; their conditions may differ.

Assays:
Panx-1 = conditions: cited from earlier work; for IC50: Panx-1 blockers, reference compounds
Panx-1 channels [1] = molecular target: T1, Panx-1 channels (Mus musculus, UniProt Q9JIP4); assay: Voltage clamp on Xenopus laevis oocytes expressing Panx-1 channels; assay type: cell-based; conditions: for % inhibition of Panx1-mediated membrane currents: Figure 4 dose-response plot, concentration not printed in the legend; for IC50: dose-response curves, Panx1-mediated membrane currents in oocytes
T1 construct: expressed in transfected cells; host or cells: Xenopus laevis oocytes injected with in vitro-transcribed mRNA
T1 sequence (Q9JIP4 whole entry): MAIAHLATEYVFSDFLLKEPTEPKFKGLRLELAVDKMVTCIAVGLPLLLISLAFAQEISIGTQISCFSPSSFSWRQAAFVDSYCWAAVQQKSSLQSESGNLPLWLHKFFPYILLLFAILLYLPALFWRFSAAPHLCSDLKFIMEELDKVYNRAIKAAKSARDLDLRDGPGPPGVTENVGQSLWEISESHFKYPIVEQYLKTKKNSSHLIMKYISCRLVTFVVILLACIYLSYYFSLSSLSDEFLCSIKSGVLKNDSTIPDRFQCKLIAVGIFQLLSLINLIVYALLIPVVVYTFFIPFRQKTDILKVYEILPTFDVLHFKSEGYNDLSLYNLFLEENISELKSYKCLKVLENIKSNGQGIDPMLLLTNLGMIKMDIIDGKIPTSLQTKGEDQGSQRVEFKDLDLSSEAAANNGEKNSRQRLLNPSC

Panx-1 channels [2] = molecular target: T1, Panx-1 channels; assay: as above; assay type: cell-based; conditions: for inhibition at 50 µM / I (%) inhibition of Panx-1 currents: voltage clamp, Xenopus laevis oocytes expressing Panx-1 channels, 50 µM; for inhibition at 50 µM: read-out: I (%) inhibition of Panx-1 currents; for classification as active or inactive Panx-1 blocker: grouping chosen for the virtual screening
Experimental: All new products were screened as Panx-1 blockers at the dose of 50 µM using the Voltage Clamp technique on Xenopus Laevis oocytes expressing Panx-1 channels. The membrane potential of the cells was held at -60 mV and voltage steps to +60 mV were applied to induce membrane currents. To verify that Panx-1 channels carried the currents, in each experiment 100 µM carbenoxolone (CBX) was applied. At this concentration, CBX is known to yield 100% inhibition of Panx-1 activity. If present, leak currents resistant to CBX were subtracted from the total current to assess % inhibition mediated by the tested compounds. Table 1 and Table 2 report the electrophysiological results of naphthalene-2-sulphonic acid derivatives bearing at position 5 an amino- (3a–e, 4 and 5) or amide group (7a–g, 8 and 9) and of compound 13.
Oocytes of Xenopus laevis are prepared as previously described in [39] where the oocytes are isolated from surgically removed ovary segments incubated in an Oocyte Ringe solution Ca2-free (OR2: in mM: 82.5 NaCl, 2.5 KCl, 1.0 MgCl2, […], 1.0 Na2HPO4 e 5.0 HEPES, pH 7.5) with 2 mg/mL of collagenase and antibiotics (10,000 U/mL penicillin and 10 mg/mL of streptomycin) stirred at room temperature for 3 h. After being washed with OR2, oocytes free of follicular cells and that have a uniform pigmentation are chosen and stored in OR2 for 18 °C.
Mouse pannexin1, in pCS2, was linearised with NotI. In vitro transcription was performed with the polymerase SP6, using the Message Machine kit (Ambion). mRNA was quantified by absorbance (260 nm), and the proportion of full-length transcripts was checked by agarose gel electrophoresis. In vitro-transcribed mRNA (~20 nL) was injected into Xenopus laevis oocytes.
Whole-cell membrane currents of oocytes were measured using a two-electrode voltage clamp (Gene Clamp 500B, Axon Instruments/Molecular Devices Sunnyvale, Union City, CA, USA). Glass pipettes were pulled using a P-97 Flaming/Brown type puller (Sutter, Novato, CA, USA). The recording chamber was perfused continuously with frog Ringer (OR) solution (in mM: 82.5 NaCl, 2.5 KCl, 1 CaCl2, 1 MgCl2, 1 Na2HPO4, and 5 HEPES, pH 7.5).
Membrane conductance was determined using voltage pulses, and the pulse-induced current amplitudes were divided by the amplitudes of the voltage steps. For calculation of % inhibition, leak currents were subtracted. Typically, leak currents after the interventions were smaller than at the beginning of the experiment and this smaller value was used for the subtraction to avoid overestimation of the inhibitory effect. For an independent measure of the leak current, oocytes at the end of the experiment were exposed to 100 µM carbenoxolone, which is known to close Panx1 channels 100%. Oocytes expressing Panx1 were held at −60 mV, and pulses to +60 mV were applied to transiently open the channels by means of the voltage gate. Pulses 5 s in duration were applied at 0.1 Hz for current and conductance measurements.

[3] = tested on: oxaliplatin-induced thermal allodynia in mice; assay: Cold plate test in mouse model of oxaliplatin-induced neuropathic pain; assay type: in vivo; conditions: oxaliplatin-treated mice; for time of maximum anti-allodynic effect: 3 nmol intrathecally; for pain threshold (licking latency), Cold plate test: 1 nmol and 3 nmol intrathecally, vs oxaliplatin + vehicle
Experimental: The two selected Panx-1 blockers, 4 and 13, were tested in a mouse model of oxaliplatin-induced neuropathic pain that involves this channel. Oxaliplatin is a third-generation platinum-based chemotherapeutic agent that, similar to other platinum-based compounds, interferes with the proliferation of tumor cells, leading to cancer cell destruction […] Recent studies have highlighted the efficacy of selective Panx1 antagonists in […] evoked by repeated administrations of antineoplastic drug, making Panx1 a possible therapeutic target in reducing chemotherapeutic-induced neuropathic pain [16, 23]. In this experiment we tested the anti-hypersensitivity properties of two novel Panx1 antagonists in a mouse model of oxaliplatin-induced thermal allodynia. […] This time delay is reported here as licking latency (s). The two compounds were acutely injected intrathecally at 1 nmol and 3 nmol in oxaliplatin-treated animals. […] The effect recorded was dose-dependent (Figure 5b).
Eight-week-old male CD-1 mice (Envigo, Varese, Italy) weighing approximately 20–25 g at the beginning of the experimental procedure were used. Animals were housed in the Centro Stabulazione Animali da Laboratorio (CeSAL; University of Florence, Italy) and used at least 1 week after their arrival; 10 mice were housed per cage (size 26 cm × 41 cm). Animals were fed a standard laboratory diet and tap water ad libitum and kept at 23 ± 1 °C with a 12 h light/dark cycle (light at 7 a.m.).
Mice treated with oxaliplatin (Carbosynth, Pangbourne, UK; 2.4 mg kg^−1) were administered intraperitoneally (i.p.) for 2 weeks Oxaliplatin was dissolved in a 5% glucose solution. Control animals received an equivalent volume of vehicle. Behavioural tests were performed starting from day 14, when neuropathy was well established.
Compounds 4 and 13 were intrathecally (i.t.) injected in conscious mice as previously described. Compound 4 was dissolved in sterile saline solution while compound 13 was dissolved in a mixture consisting of PEG400, TWEEN 20 and sterile saline solution (1:1:3, respectively). Briefly, a 25 µL Hamilton syringe connected to a 30-gauge needle was intervertebrally inserted between the L4 and L5 region, and advanced 6 mm into the lumbar enlargement of the spinal cord. Behavioural measurements were performed before and 15 min, 30 min, 45 min, and 60 min after the administration of compounds.
Thermal allodynia was assessed using the Cold-plate test. With minimal animal-handler interaction, mice were taken from home-cages, and placed onto the surface of the cold-plate (Ugo Basile, Varese, Italy) maintained at a constant temperature of 4 ± 1 °C. Ambulation was restricted by a cylindrical plexiglas chamber (diameter: 10 cm, height: 15 cm), with open top. A timer controlled by foot peddle began timing response latency from the moment the mouse was placed onto the cold-plate. Pain-related behaviour (licking of the hind paw) was observed, and the time (seconds) of the first sign was recorded. The cut-off time of the latency of paw lifting or licking was set at 30 s.
Figure 5 Pain-relieving effect of (a) 4 and (b) 13 on oxaliplatin-induced thermal allodynia in mice. Cold plate test. […] Pain-related behavior (i.e., lifting and licking of the hind paw) was observed and the time (s) of the first sign was recorded. ** p < 0.01 vs. vehicle + vehicle treated animals; ^ p < 0.05 and ^^ p < 0.01 vs. oxaliplatin + vehicle treated animals. […]

Compound	inhibition at 50 µM (Panx-1 channels [2]) [%]	melting point	further results
CCN(Cc1cccc(S(=O)(=O)O)c1)c1ccc(C(=C2C=CC(=[N+](CC)Cc3cccc(S(=O)(=O)O)c3)C=C2)c2ccccc2S(=O)(=O)[O-])cc1 [Brilliant Blue FCF]	–	–	IC50 (Panx-1): 0.27 µM
CC1(C)[C@@H](OC(=O)CCC(=O)O)CC[C@]2(C)[C@H]3C(=O)C=C4[C@@H]5C[C@@](C)(C(=O)O)CC[C@]5(C)CC[C@@]4(C)[C@]3(C)CC[C@@H]12 [Carbenoxolone, carbenoxolone]	–	–	inhibition of Panx-1 activity (Panx-1; 100 µM carbenoxolone): 100%; IC50 (Panx-1): 10 µM; % inhibition of Panx1-mediated membrane currents (Panx-1 channels [1]): 100%
O=S(=O)(O)c1ccc2c(NCCCc3ccccc3)cccc2c1 [Compound 3c, 5-[(3-Phenylpropyl)amino]naphthalene-2-sulfonic acid]	66.7 ± 5.5	–	IC50 (Panx-1 channels [1]): 9 µM
O=C(O)c1ccc(CNc2cccc3cc(S(=O)(=O)O)ccc23)cc1 [Compound 4, 4-[(6-Sulfonaphthalen-1-yl)aminomethyl]benzoic Acid]	97 ± 1.5	–	time of maximum anti-allodynic effect [3]: 45 min; time after injection from which the enhancement of pain threshold is significant ([3]; intrathecal injection): 30 min; pain threshold (licking latency), Cold plate test [3]: significantly increase the mouse pain threshold; also recorded: significant enhancement of the pain threshold; IC50 (Panx-1 channels [1]): 8.8 µM
CCCCN(CCCC)S(=O)(=O)c1ccc(C(=O)Nc2cccc3cc(S(=O)(=O)O)ccc23)cc1 [Compound 7c, 5-[4-(N,N-dibutylsulfamoyl)benzamido]naphthalene-2-sulfonic acid]	67.8 ± 2.2	–	IC50 (Panx-1 channels [1]): 40.4 µM
O=C(Nc1cccc2cc(S(=O)(=O)O)ccc12)c1ccc(S(=O)(=O)N(Cc2ccccc2)Cc2ccccc2)cc1 [Compound 7d, 5-[4-(N,N-dibenzylsulfamoyl)benzamido]naphthalene-2-sulfonic acid]	75	–	IC50 (Panx-1 channels [1]): 15.1 µM; I (%) inhibition of Panx-1 currents (Panx-1 channels [2]): 75.2 ± 5.90 (4) %
O=C(O)c1ccc(CN(Cc2ccc(C(=O)O)cc2)S(=O)(=O)c2ccc(C(=O)O)cc2)cc1 [Compound 13, 4,4′-{{[(4-Carboxyphenyl)sulfonyl]azanediyl}bis(methylene)}dibenzoic acid]	94	–	time of maximum anti-allodynic effect [3]: 45 min; pain threshold (licking latency), Cold plate test [3]: significantly increase the mouse pain threshold; also recorded: significant increase of the mouse pain threshold; % inhibition of Panx1-mediated membrane currents (Panx-1 channels [1]): 100%; IC50 (Panx-1 channels [1]): 1.2 µM; I (%) inhibition of Panx-1 currents (Panx-1 channels [2]): 93.7 ± 2.3%
CCN(CC)S(=O)(=O)c1ccc(-n2ncc(C(=O)O)c2N)cc1 [Compound 19a, 5-Amino-1-(4-(N,N-diethylsulfamoyl)phenyl)-1H-pyrazole-4-carboxylic acid]	14.3 ± 7.4	240 °C (dec.)	–
CCCN(CCC)S(=O)(=O)c1ccc(-n2ncc(C(=O)O)c2N)cc1 [Compound 19b, 5-Amino-1-(4-(N,N-dipropylsulfamoyl)phenyl)-1H-pyrazole-4-carboxylic acid]	21 ± 7.8	167 to 168 °C	–
CCCNc1c(C(=O)O)cnn1-c1ccc(S(=O)(=O)N(CCC)CCC)cc1 [Compound 19c, 1-(4-(N,N-dipropylsulfamoyl)phenyl)-5-(propylamino)-1H-pyrazole-4-carboxylic acid]	28 ± 6.9	170 to 172 °C	–
Nc1c(C(=O)O)cnn1-c1ccc(S(=O)(=O)NCc2ccccc2)cc1 [Compound 23, 5-Amino-1-(4-(N-benzylsulfamoyl)phenyl)-1H-pyrazole-4-carboxylic acid]	16.3 ± 6.4	207 to 210 °C	–
Nc1c(C(=O)O)cnn1-c1ccc(S(=O)(=O)N(Cc2ccccc2)Cc2ccccc2)cc1 [Compound 24, 5-Amino-1-(4-(N,N-dibenzylsulfamoyl)phenyl)-1H-pyrazole-4-carboxylic acid]	42	168 to 170 °C	I (%) inhibition of Panx-1 currents (Panx-1 channels [2]): 42.7 ± 2.4 (4) %; classification as active or inactive Panx-1 blocker (Panx-1 channels [2]): inactive
Nc1c(C(=O)O)cnn1-c1ccc(S(=O)(=O)NCCc2ccccc2)cc1 [Compound 28, 5-Amino-1-(4-(N-phenethylsulfamoyl)phenyl)-1H-pyrazole-4-carboxylic acid]	22.7 ± 5.5	186 to 188 °C	–
O=C(O)c1cnn(-c2ccc(S(=O)(=O)NCCc3ccccc3)cc2)c1NCCc1ccccc1 [Compound 29, 5-(Phenethylamino)-1-(4-(N-phenethylsulfamoyl)phenyl)-1H-pyrazole-4-carboxylic acid]	25.3 ± 0.9	105 to 107 °C	–
Nc1c(C(=O)O)cnn1-c1ccc(S(=O)(=O)N(CCc2ccccc2)Cc2ccccc2)cc1 [Compound 30, 5-Amino-1-(4-(N-benzyl-N-phenethylsulfamoyl)phenyl)-1H-pyrazole-4-carboxylic acid]	30 ± 7.2	263 to 266 °C (dec.)	–
O=C(O)c1cc([N+](=O)[O-])ccc1NCCCc1ccccc1 [NPPB, 5-nitro-2-(3-phenylpropylamino)benzoic acid]	–	–	IC50 (Panx-1): 50 µM
CCCN(CCC)S(=O)(=O)c1ccc(C(=O)O)cc1 [Probenecid, reference compound]	29	–	IC50 (Panx-1): 150 µM; classification as active or inactive Panx-1 blocker (Panx-1 channels [2]): inactive
